Results as given in patent US6703397B2, “Pyrimidinyl methyl indole derivatives with antibacterial activity” (Basilea Pharmaceutica AG, priority 2000, dated 2004).
pIC50: −log10 of the molar value. Values after ≈ are worked out from the molar mass of the structure shown. Read-outs that look alike come from different tables or passages of the source.

Legend:
[1] = target: purified DHFR of strain Spn1/1 (Streptococcus pneumoniae serotype 4, UniProt Q54801, E20D/I100L/L135F/P70S/Q81H); assay: biochemical
purified DHFR of strain Spn1/1, sequence (Q54801 whole entry E20D/P70S/Q81H/I100L/L135F): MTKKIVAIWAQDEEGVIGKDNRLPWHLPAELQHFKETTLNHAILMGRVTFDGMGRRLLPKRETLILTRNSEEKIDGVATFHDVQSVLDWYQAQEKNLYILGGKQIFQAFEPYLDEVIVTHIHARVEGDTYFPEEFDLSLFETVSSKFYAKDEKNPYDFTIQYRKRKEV
Source text: Col. 3: DHFR Spn1/1; μM)—the IC50-values in μM against the purified DHFR of the above strain Spn1/1; of Streptococcus pneumoniae.

[2] = test system: Streptococcus pneumoniae 1/1; assay: MIC against Streptococcus pneumoniae 1/1 (trimethoprim- and penicillin-resistant clinical isolate, serotype 6); format: cell-based; conditions: Streptococcus pneumoniae 1/1, trimethoprim- and penicillin-resistant, serotype 6; for MIC: read-out: Spn 1/1 MIC
Description: The following Tables 1 and 2 contain inhibitory concentrations determined in the above test for representative members of the class of compound defined by formula I. The following microorganisms were tested: […]
Col. 2: MIC Spn1/1; μg/ml (Streptococcus pneumoniae 1/1, Trimethoprim- and Penicillin-resistant, Serotype 6; clinical isolate, stored at −80° C.). Lit.: H. Locher et al., Can. J. Infect. Dis. 6: Suppl. C, p 469C.

[3] = test system: Streptococcus pneumoniae ATCC 49619; assay: MIC against Streptococcus pneumoniae ATCC 49619 (trimethoprim- and penicillin-susceptible reference strain); format: cell-based; conditions: Streptococcus pneumoniae ATCC 49619, trimethoprim- and penicillin-susceptible; for MIC: ATCC49619, read-out: Spn 49619 MIC
Description: The following Tables 1 and 2 contain inhibitory concentrations determined in the above test for representative members of the class of compound defined by formula I. The following microorganisms were tested: Col. 1: […]

Compound | pIC50 ([1]; purified DHFR of S. pneumoniae strain Spn1/1, read-out: Spn 1/1 IC50) | Spn 1/1 MIC [2] [µg/mL] | Spn 49619 MIC [3] [µg/mL] | pIC50 [1] | MIC [2] [µg/mL] | MIC [3] [µg/mL]
6-(2,4-Diamino-pyrimidin-5-ylmethyl)-4-ethoxy-indole-1-sulfonic Acid dimethylamide [Example 2e] | 6.96 | 4 | 0.06 | – | – | –
CCn1cc(CN2CC(C)OC(C)C2)c2c(OS(=O)(=O)C(C)C)cc(Cc3cnc(N)nc3N)cc21 (mixture of isomers) [Example 10d, (cis/trans)-Propane-2-sulfonic acid 6-(2,4-diamino-pyrimidin-5-ylmethyl)-3-(2,6-dimethyl-morpholin-4-ylmethyl)-1-ethyl-1H-indol-4-yl ester] | – | – | – | 6.60 | 8 | 1
CCC(C)S(=O)(=O)Oc1cc(Cc2cnc(N)nc2N)cc2c1ccn2C (racemic) [Example 5e, rac-Butane-2-sulfonic acid 6-(2,4-diamino-pyrimidin-5-ylmethyl)-1-methyl-1H-indol-4-yl ester] | – | – | – | 7.89 | 8 (≈ 20.5 µM) | 0.125 (≈ 0.321 µM)
CCn1ccc2c(OCC3CCCO3)cc(Cc3cnc(N)nc3N)cc21 (racemic) [Example 7i, rac-5-[1-Ethyl-4-(tetrahydro-furan-2-ylmethoxy)-1H-indol-6-ylmethyl]-pyrimidine-2,4-diamine] | – | – | – | 7.89 | 8 (≈ 21.8 µM) | 0.5 (≈ 1.36 µM)
CCC(C)S(=O)(=O)Oc1cc(Cc2cnc(N)nc2N)cc2c1ccn2CC (racemic) [Example 8d, rac-Butane-2-sulfonic acid 6-(2,4-diamino-pyrimidin-5-ylmethyl)-1-ethyl-1H-indol-4-yl ester] | – | – | – | 8.74 | 1 (≈ 2.48 µM) | 0.03 (≈ 0.0743 µM)
CCC(C)S(=O)(=O)Oc1cc(Cc2cnc(N)nc2N)cc2c1cc(C)n2CC (racemic) [Example 15c, rac-Butane-2-sulfonic acid 6-(2,4-diamino-pyrimidin-5-ylmethyl)-1-ethyl-2-methyl-1H-indol-4-yl ester] | – | – | – | 8.06 | 2 (≈ 4.79 µM) | 0.03 (≈ 0.0719 µM)
CCOc1cc(Cc2cnc(N)nc2N)cc(OCC)c1-n1cccc1 [Epiroprim, reference compound] | – | – | – | 6.72 | 4 (≈ 11.3 µM) | 0.125 (≈ 0.354 µM)
CCOc1cc(Cc2cnc(N)nc2N)cc2c1ccn2CC1CC1 [Example 2a, 5-(1-cyclopropylmethyl-4-ethoxy-1H-indol-6-ylmethyl)-pyrimidine-2,4-diamine] | – | – | – | 6.96 | > 8 | 0.5 (≈ 1.48 µM)
CCOc1cc(Cc2cnc(N)nc2N)cc2c1ccn2C1CCCC1 [Example 2b, 5-(1-Cyclopentyl-4-ethoxy-1H-indol-6-ylmethyl)-pyrimidine-2,4-diamine] | – | – | – | 6.82 | 8 (≈ 22.8 µM) | 0.5 (≈ 1.42 µM)
CCOc1cc(Cc2cnc(N)nc2N)cc2c1ccn2Cc1ccccc1 [Example 2c, 5-(1-Benzyl-4-ethoxy-1H-indol-6-ylmethyl)-pyrimidine-2,4-diamine] | – | – | – | 6.34 | > 8 | 2 (≈ 5.36 µM)
CCOc1cc(Cc2cnc(N)nc2N)cc2c1ccn2S(=O)(=O)C(C)C [Example 2d, 5-[4-Ethoxy-1-(propane-2-sulfonyl)-1H-indol-6-ylmethyl]-pyrimidine-2,4-diamine] | – | – | – | 6.48 | > 8 | 0.5 (≈ 1.28 µM)
CCOc1cc(Cc2cnc(N)nc2N)cc2c1ccn2CC [Example 3, 5-(4-Ethoxy-1-ethyl-1H-indol-6-ylmethyl)-pyrimidine-2,4-diamine] | – | – | – | 7.62 | 4 (≈ 12.8 µM) | 0.125 (≈ 0.401 µM)
Cn1ccc2c(OCC3CC3)cc(Cc3cnc(N)nc3N)cc21 [Example 5a, 5-(4-Cyclopropylmethoxy-1-methyl-1H-indol-6-ylmethyl)-pyrimidine-2,4-diamine] | – | – | – | 6.96 | 4 (≈ 12.4 µM) | 0.25 (≈ 0.773 µM)
CC(C)Oc1cc(Cc2cnc(N)nc2N)cc2c1ccn2C [Example 5b, 5-(4-Isopropoxy-1-methyl-1H-indol-6-ylmethyl)-pyrimidine-2,4-diamine] | – | – | – | 6.77 | > 8 | 0.5 (≈ 1.61 µM)
CC(C)S(=O)(=O)Oc1cc(Cc2cnc(N)nc2N)cc2c1ccn2C [Example 5c, Propane-2-sulfonic acid 6-(2,4-diamino-pyrimidin-5-ylmethyl)-1-methyl-1H-indol-4-yl ester] | – | – | – | 7.08 | 4 (≈ 10.7 µM) | 0.25 (≈ 0.666 µM)
CC(C)CS(=O)(=O)Oc1cc(Cc2cnc(N)nc2N)cc2c1ccn2C [Example 5d, 2-Methyl-propane-1-sulfonic acid 6-(2,4-diamino-pyrimidin-5-ylmethyl)-1-methyl-1H-indol-4-yl ester] | – | – | – | 7.44 | 4 (≈ 10.3 µM) | 0.125 (≈ 0.321 µM)

Compound | pIC50 ([1]; purified DHFR of S. pneumoniae strain Spn1/1, read-out: Spn 1/1 IC50) | Spn 1/1 MIC [2] [µg/mL] | Spn 49619 MIC [3] [µg/mL] | pIC50 [1] | MIC [2] [µg/mL] | MIC [3] [µg/mL]
CCn1ccc2c(OCC3CC3)cc(Cc3cnc(N)nc3N)cc21 [Example 7a, 5-(4-Cyclopropylmethoxy-1-ethyl-1H-indol-6-ylmethyl)-pyrimidine-2,4-diamine] | – | – | – | 7.68 | 4 (≈ 11.9 µM) | 0.125 (≈ 0.37 µM)
CCn1ccc2c(OC)cc(Cc3cnc(N)nc3N)cc21 [Example 7b, 5-(1-Ethyl-4-methoxy-1H-indol-6-ylmethyl)-pyrimidine-2,4-diamine] | – | – | – | 6.39 | 8 (≈ 26.9 µM) | 0.5 (≈ 1.68 µM)
CCn1ccc2c(OC(C)C)cc(Cc3cnc(N)nc3N)cc21 [Example 7c, 5-(1-Ethyl-4-isopropoxy-1H-indol-6-ylmethyl)-pyrimidine-2,4-diamine] | – | – | – | 6.85 | 4 (≈ 12.3 µM) | 0.25 (≈ 0.768 µM)
C#CCOc1cc(Cc2cnc(N)nc2N)cc2c1ccn2CC [Example 7d, 5-(1-Ethyl-4-prop-2-ynyloxy-1H-indol-6-ylmethyl)-pyrimidine-2,4-diamine] | – | – | – | 7.15 | 8 (≈ 24.9 µM) | 0.125 (≈ 0.389 µM)
CCn1ccc2c(OCC3OCCO3)cc(Cc3cnc(N)nc3N)cc21 [Example 7e, 5-[4-([1,3]Dioxolan-2-ylmethoxy)-1-ethyl-1H-indol-6-ylmethyl]-pyrimidine-2,4-diamine] | – | – | – | 6.68 | 8 (≈ 21.7 µM) | 1 (≈ 2.71 µM)
CCn1ccc2c(OCC3CCC3)cc(Cc3cnc(N)nc3N)cc21 [Example 7f, 5-(4-Cyclobutylmethoxy-1-ethyl-1H-indol-6-ylmethyl)-pyrimidine-2,4-diamine] | – | – | – | 7.39 | 2 (≈ 5.69 µM) | 0.5 (≈ 1.42 µM)
CCn1ccc2c(OCC(C)C)cc(Cc3cnc(N)nc3N)cc21 [Example 7g, 5-(1-Ethyl-4-isobutoxy-1H-indol-6-ylmethyl)-pyrimidine-2,4-diamine] | – | – | – | 7.54 | 2 (≈ 5.89 µM) | 0.5 (≈ 1.47 µM)
CCn1ccc2c(OCC3(C)CC3)cc(Cc3cnc(N)nc3N)cc21 [Example 7h, 5-[1-Ethyl-4-(1-methyl-cyclopropylmethoxy)-1H-indol-6-ylmethyl]-pyrimidine-2,4-diamine] | – | – | – | 7.82 | 4 (≈ 11.4 µM) | 1 (≈ 2.85 µM)
CCn1ccc2c(OS(=O)(=O)C(C)C)cc(Cc3cnc(N)nc3N)cc21 [Example 8a, Propane-2-sulfonic acid 6-(2,4-diamino-pyrimidin-5-ylmethyl)-1-ethyl-1H-indol-4-yl ester] | – | – | – | 7.55 | 1 (≈ 2.57 µM) | 0.03 (≈ 0.077 µM)
CCn1ccc2c(OS(=O)(=O)CC3CC3)cc(Cc3cnc(N)nc3N)cc21 [Example 8b, Cyclopropyl-methanesulfonic acid 6-(2,4-diamino-pyrimidin-5-ylmethyl)-1-ethyl-1H-indol-4-yl ester] | – | – | – | 8.82 | 1 (≈ 2.49 µM) | ≤ 0.015
CCn1ccc2c(OS(=O)(=O)CC(C)C)cc(Cc3cnc(N)nc3N)cc21 [Example 8c, 2-Methyl-propane-1-sulfonic acid 6-(2,4-diamino-pyrimidin-5-ylmethyl)-1-ethyl-1H-indol-4-yl ester] | – | – | – | 8.82 | 2 (≈ 4.96 µM) | ≤ 0.015
CCn1ccc2c(OS(=O)(=O)N(C)C)cc(Cc3cnc(N)nc3N)cc21 [Example 9, Dimethyl-sulfamic Acid 6-(2,4-diamino-pyrimidin-5-ylmethyl)-1-ethyl-1H-indol-4-yl ester] | – | – | – | 7.54 | 2 (≈ 5.12 µM) | 0.03 (≈ 0.0768 µM)
CCn1cc(CN2CCOCC2)c2c(OCC3CC3)cc(Cc3cnc(N)nc3N)cc21 [Example 10a, 5-(4-Cyclopropylmethoxy-1-ethyl-3-morpholin-4-ylmethyl-1H-indol-6-ylmethyl)-pyrimidine-2,4-diamine] | – | – | – | 6.74 | 8 (≈ 18.3 µM) | 0.25 (≈ 0.573 µM)
CCn1cc(CN2CCOCC2)c2c(OS(=O)(=O)C(C)C)cc(Cc3cnc(N)nc3N)cc21 [Example 10b, Propane-2-sulfonic acid 6-(2,4-diamino-pyrimidin-5-ylmethyl)-1-ethyl-3-morpholino-4-ylmethyl-1H-indol-4-ester] | – | – | – | 6.96 | 8 (≈ 16.4 µM) | 0.5 (≈ 1.02 µM)
CCn1cc(CN2CCSCC2)c2c(OS(=O)(=O)C(C)C)cc(Cc3cnc(N)nc3N)cc21 [Example 10c, Propane-2-sulfonic acid 6-(2,4-diamino-pyrimidin-5-ylmethyl)-1-ethyl-3-thiomorpholin-4-ylmethyl-1H-indol-4-yl ester] | – | – | – | 6.80 | 4 (≈ 7.93 µM) | 1 (≈ 1.98 µM)
COc1cc(Cc2cnc(N)nc2N)cc(OC)c1OC [Trimethoprim, reference compound] | – | – | – | – | > 32 | 4 (≈ 13.8 µM)
